In data set [1] the target is T1, Metabotropic glutamate receptor 2 (Homo sapiens, UniProt Q14416). In words: Positive allosteric modulation of human mGlu2 receptor expressed in CHO cells assessed as glutamate-induced [35S]GTPgammaS binding after 30 mins by liquid scintillation counting. Type of data set: functional, cell-based.
Target sequence in this assay (Q14416 whole entry): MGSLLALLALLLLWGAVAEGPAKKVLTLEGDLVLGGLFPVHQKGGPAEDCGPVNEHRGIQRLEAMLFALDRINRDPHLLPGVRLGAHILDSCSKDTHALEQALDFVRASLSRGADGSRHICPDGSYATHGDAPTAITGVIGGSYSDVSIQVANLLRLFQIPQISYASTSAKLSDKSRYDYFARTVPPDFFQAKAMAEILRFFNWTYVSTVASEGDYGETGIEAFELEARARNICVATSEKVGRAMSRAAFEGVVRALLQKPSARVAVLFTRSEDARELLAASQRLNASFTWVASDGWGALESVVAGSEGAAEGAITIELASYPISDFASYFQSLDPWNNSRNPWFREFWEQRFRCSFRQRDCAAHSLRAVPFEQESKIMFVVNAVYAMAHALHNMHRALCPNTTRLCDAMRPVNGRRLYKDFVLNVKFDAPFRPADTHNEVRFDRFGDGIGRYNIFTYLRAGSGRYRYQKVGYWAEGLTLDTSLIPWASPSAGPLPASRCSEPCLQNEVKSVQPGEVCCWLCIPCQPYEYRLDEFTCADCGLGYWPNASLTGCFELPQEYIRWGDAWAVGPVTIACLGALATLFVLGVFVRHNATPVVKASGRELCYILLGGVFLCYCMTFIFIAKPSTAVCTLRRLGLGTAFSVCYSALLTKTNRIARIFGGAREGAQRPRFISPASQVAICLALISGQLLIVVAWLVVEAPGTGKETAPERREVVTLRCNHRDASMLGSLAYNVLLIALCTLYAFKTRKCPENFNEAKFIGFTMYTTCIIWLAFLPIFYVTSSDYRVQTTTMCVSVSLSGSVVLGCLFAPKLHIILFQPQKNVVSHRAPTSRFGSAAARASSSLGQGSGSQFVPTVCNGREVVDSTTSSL
The target of data set [2] is T1, Metabotropic glutamate receptor 2. In words: Positive allosteric modulation of human mGlu2 receptor expressed in CHO cells assessed as glutamate-induced [35S]GTPgammaS binding after 30 mins by liquid scintillation counting relative to glutamate. It is filed as functional, cell-based.
Target sequence in this assay (Q14416 19-872 limits assumed): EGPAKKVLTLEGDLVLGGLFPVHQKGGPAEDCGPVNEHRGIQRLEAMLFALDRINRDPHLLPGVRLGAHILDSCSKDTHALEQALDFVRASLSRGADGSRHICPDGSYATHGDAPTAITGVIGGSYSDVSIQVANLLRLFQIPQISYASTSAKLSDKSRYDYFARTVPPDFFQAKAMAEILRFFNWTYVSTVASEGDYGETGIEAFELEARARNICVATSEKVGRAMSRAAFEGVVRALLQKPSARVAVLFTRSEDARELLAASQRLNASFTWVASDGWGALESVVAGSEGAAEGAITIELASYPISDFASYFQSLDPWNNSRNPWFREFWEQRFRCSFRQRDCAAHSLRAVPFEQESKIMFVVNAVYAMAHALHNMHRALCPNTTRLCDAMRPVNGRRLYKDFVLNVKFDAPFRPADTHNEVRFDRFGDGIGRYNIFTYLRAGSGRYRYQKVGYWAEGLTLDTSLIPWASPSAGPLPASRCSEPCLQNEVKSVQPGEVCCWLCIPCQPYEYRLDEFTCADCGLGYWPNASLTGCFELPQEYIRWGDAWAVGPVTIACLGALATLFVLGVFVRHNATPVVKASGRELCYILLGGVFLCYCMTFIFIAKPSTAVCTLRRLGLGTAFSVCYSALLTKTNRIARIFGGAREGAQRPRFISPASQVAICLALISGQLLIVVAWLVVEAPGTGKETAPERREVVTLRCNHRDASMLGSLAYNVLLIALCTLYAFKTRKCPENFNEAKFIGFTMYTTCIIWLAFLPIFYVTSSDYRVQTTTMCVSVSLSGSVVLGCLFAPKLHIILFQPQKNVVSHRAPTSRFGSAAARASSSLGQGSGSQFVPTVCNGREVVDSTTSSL
Data set [3] in a line: Drug metabolism in human liver microsomes at 5 uM after 15 mins. Type of data set: ADME, Microsome. To be noted: read-out: Drug metabolism.
Data set [4] can be described thus: Drug metabolism in rat liver microsomes at 5 uM after 15 mins. It is filed as ADME, Microsome. The settings on record: read-out: Drug metabolism.
The target of a further data set is hERG (Homo sapiens, UniProt Q12809). In words: Inhibition of human ERG expressed in HEK293 cells assessed as whole cell current at 3 uM after 5 mins by automated patch-clamp assay relative to control. The settings on record: HEK293 cells expressing hERG. Type of data set: cell-based.
Chain of hERG (Q12809 whole entry): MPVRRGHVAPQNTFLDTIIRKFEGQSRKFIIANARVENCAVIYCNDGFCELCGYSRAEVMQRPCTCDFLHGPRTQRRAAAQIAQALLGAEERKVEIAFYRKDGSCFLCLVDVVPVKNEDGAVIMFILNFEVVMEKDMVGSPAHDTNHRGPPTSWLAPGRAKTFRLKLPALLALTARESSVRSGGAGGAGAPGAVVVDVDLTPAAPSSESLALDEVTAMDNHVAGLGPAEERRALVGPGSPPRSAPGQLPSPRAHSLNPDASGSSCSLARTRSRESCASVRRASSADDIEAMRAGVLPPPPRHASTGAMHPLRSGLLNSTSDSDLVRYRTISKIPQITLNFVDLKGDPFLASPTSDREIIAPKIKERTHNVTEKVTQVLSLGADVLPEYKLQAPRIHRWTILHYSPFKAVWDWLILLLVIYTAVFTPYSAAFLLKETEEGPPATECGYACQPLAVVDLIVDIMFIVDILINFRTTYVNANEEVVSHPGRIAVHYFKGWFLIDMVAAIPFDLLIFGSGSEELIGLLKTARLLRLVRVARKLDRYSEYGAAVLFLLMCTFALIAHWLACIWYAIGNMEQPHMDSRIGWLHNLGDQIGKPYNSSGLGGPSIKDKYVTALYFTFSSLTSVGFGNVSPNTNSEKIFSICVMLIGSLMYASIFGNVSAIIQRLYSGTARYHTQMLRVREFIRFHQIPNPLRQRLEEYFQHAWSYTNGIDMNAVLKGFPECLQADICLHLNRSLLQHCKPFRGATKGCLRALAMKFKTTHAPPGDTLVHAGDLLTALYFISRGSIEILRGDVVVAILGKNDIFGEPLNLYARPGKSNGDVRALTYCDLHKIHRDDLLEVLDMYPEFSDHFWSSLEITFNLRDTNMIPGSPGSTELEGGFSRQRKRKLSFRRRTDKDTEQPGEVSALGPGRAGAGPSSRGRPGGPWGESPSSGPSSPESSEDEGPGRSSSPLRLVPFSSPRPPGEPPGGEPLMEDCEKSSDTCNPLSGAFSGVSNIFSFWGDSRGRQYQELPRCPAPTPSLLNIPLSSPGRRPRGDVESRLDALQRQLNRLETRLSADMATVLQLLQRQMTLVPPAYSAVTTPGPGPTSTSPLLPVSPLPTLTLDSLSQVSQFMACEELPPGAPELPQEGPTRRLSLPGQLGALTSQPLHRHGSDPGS
Data set [5] in a line: Aqueous solubility of the compound in 20% HP-beta-CD buffer at pH 4. Type of data set: physicochemical.
A short description of data set [6]: Drug level in Swiss mouse brain at 10 mg/kg, sc after 0.5 hrs. It is filed as ADME, organism-based. On the set-up: dose 10 mg/kg, route subcutaneous. To be noted: read-out: Drug uptake.
The nature of data set [7]: Drug level in Swiss mouse brain at 10 mg/kg, sc after 1 hr. The settings on record: read-out: Drug uptake. It is filed as ADME, organism-based. On the set-up: dose 10 mg/kg, route subcutaneous.
Data set [8] can be described thus: Drug level in Swiss mouse brain at 10 mg/kg, sc after 1.5 hrs. To be noted: read-out: Drug uptake. It is filed as ADME, organism-based. On the set-up: dose 10 mg/kg, route subcutaneous.
Data set [9] can be described thus: Ratio of drug level in brain to plasma in Swiss mouse at 10 mg/kg, sc after 1 hr. On the set-up: dose 10 mg/kg, route subcutaneous. It is filed as ADME, organism-based. To be noted: read-out: BPR.

Data on 33 compounds can be found in ChEMBL document CHEMBL2029212, “Discovery of 1,4-disubstituted 3-cyano-2-pyridones: a new class of positive allosteric modulators of the metabotropic glutamate 2 receptor” (J Med Chem, 2012).

A value given as a limit tells only on which side of the number the result lay.

`CCCCn1ccc(-c2ccc(Oc3ccnc(C)c3)cc2Cl)c(C#N)c1=O`: the EC50 in data set [1] was 933 nM. Further, the Emax in [2] turned out to be 187%. In addition, the results for the metabolised at 0.25 h, 5 µM in data set [3] and in data set [4] were 34% and 47%, respectively.

`Cc1ncccc1Oc1ccc(-c2ccn(CC3CC3)c(=O)c2C#N)cc1Cl`: the EC50 in data set [1] is 230 nM. In addition, the Emax in data set [2] was determined as 180%. Also, the metabolised at 0.25 h, 5 µM in data set [3] came out at 37%; in data set [4], 22%. Also, the inhibition at 5 min, 3 µM at hERG is 75%.

`CC(C)CCn1ccc(-c2ccc(OCC3CC3)cc2)c(C#N)c1=O`: the EC50 in data set [1] worked out at 290 nM. In data set [2], the Emax worked out at 192%. The results for the metabolised at 0.25 h, 5 µM in data set [3] and in [4] were 17% and 16%, respectively.

Take `COc1ccc(-c2ccn(CCC(C)C)c(=O)c2C#N)cc1Cl`: in [1], the EC50 was 363 nM. Besides, the Emax in data set [2] amounted to 200%. In addition, the metabolised at 0.25 h, 5 µM turned out to be 43% in data set [3] and 99% in data set [4].

Take `CNc1ccc(-c2ccn(CCC(C)C)c(=O)c2C#N)cc1`: the EC50 in data set [1] was determined as 460 nM. Besides, the maximal response (Emax) in [2] came to 186%.

In the case of `CC(C)CCn1ccc(-c2ccccc2)c(C#N)c1=O`, in data set [1], the EC50 is 8510 nM. Besides, the Emax in data set [2] was determined as 117%. The metabolised at 0.25 h, 5 µM was 36% in [3] and 100% in data set [4].

As to `CC(C)CCn1ccc(-c2ccc(Oc3cccnc3)cc2)c(C#N)c1=O`, in data set [1], the EC50 was 479 nM. Besides, the Emax in data set [2] was found to be 231%. Besides, the metabolised at 0.25 h, 5 µM turned out to be 21% in data set [3] and 29% in [4]. This compound came in with a solubility in data set [5] of at least 4000 µg/mL. Moreover, the inhibition at 5 min, 3 µM on hERG was determined as 30%.

For `CC(C)CCn1ccc(-c2ccc(Oc3ccccn3)cc2)c(C#N)c1=O`, in data set [1], the EC50 is 646 nM. The Emax in [2] worked out at 249%. Also, the metabolised at 0.25 h, 5 µM in data set [3] came out at 20%; in data set [4] it was 36%. The inhibition at 5 min, 3 µM at hERG is 33%.

Consider `COc1ccc(-c2ccn(CCC(C)C)c(=O)c2C#N)cc1`, for which, in data set [1], the EC50 is 1150 nM. Also, the Emax in data set [2] came to 160%.

As to `Cc1ccc(Oc2ccc(-c3ccn(CCC(C)C)c(=O)c3C#N)cc2)c(C)n1`, the EC50 in [1] worked out at 100 nM. Besides, the Emax in [2] was 246%. Moreover, the values for the metabolised at 0.25 h, 5 µM in data set [3] and in [4] were 59% and 49%, respectively.

Regarding `CC(C)CCn1ccc(-c2ccc(Nc3ccncc3)cc2)c(C#N)c1=O`, the EC50 in data set [1] was 1480 nM. In data set [2], the Emax amounted to 186%. Also, the figures for the metabolised at 0.25 h, 5 µM in data set [3] and in [4] were 25% and 33%, respectively. Moreover, the inhibition at 5 min, 3 µM at hERG came out at 91%.

Regarding `CCCCn1ccc(-c2ccc(Oc3cccnc3C)cc2)c(C#N)c1=O`, in [1], the EC50 is 347 nM. Further, in data set [2], the Emax was 228%. Also, the metabolised at 0.25 h, 5 µM was 30% in data set [3] and 50% in [4]. The inhibition at 5 min, 3 µM on hERG is 31%. The concentration at 0.5 h in data set [6] is 822 ng/g. Further, the concentration at 1 h in data set [7] worked out at 294 ng/g. In data set [8], the concentration at 1.5 h was found to be 100 ng/g. In data set [9], the Kp at 1 h is 0.3.

Turning to `CCCCn1ccc(-c2ccc(Oc3cccnc3C)c(Cl)c2)c(C#N)c1=O`, the EC50 in data set [1] was 100 nM. Also, in data set [2], the Emax came to 236%. Further, the metabolised at 0.25 h, 5 µM in [3] is 29%; in data set [4] it was 60%. For the same compound, the inhibition at 5 min, 3 µM on hERG was 56%.

For the compound `Cc1ccc(Oc2ccc(-c3ccn(CC4CC4)c(=O)c3C#N)cc2)c(C)n1`, the EC50 in data set [1] amounted to 263 nM. In [2], the Emax amounted to 183%. The metabolised at 0.25 h, 5 µM in [3] stood at 35%; in data set [4], 42%. Further, on hERG, the inhibition at 5 min, 3 µM turned out to be 68%.

Regarding `Cc1cc(Oc2ccc(-c3ccn(CC4CC4)c(=O)c3C#N)cc2)ccn1`, the EC50 in [1] stood at 832 nM. The Emax in data set [2] was 199%. In addition, the metabolised at 0.25 h, 5 µM stood at 9% in [3] and 19% in data set [4].

As to `Cc1ncccc1Oc1ccc(-c2ccn(CCC(C)C)c(=O)c2C#N)cc1`, in data set [1], the EC50 is 275 nM. Besides, the Emax in data set [2] came to 256%. Besides, the results for the metabolised at 0.25 h, 5 µM in data set [3] and in data set [4] were 57% and 45%, respectively. Besides, the inhibition at 5 min, 3 µM on hERG came out at 36%.

For `Cc1ccc(Oc2ccc(-c3ccn(CC4CC4)c(=O)c3C#N)cc2Cl)c(C)n1`, the EC50 in data set [1] worked out at 64 nM. The Emax in [2] amounted to 196%. The results for the metabolised at 0.25 h, 5 µM in data set [3] and in data set [4] were 25% and 27%, respectively. Besides, the inhibition at 5 min, 3 µM at hERG is 89%. In addition, in data set [6], the concentration at 0.5 h was found to be 750 ng/g. Besides, the concentration at 1 h in data set [7] stood at 357 ng/g. Besides, the concentration at 1.5 h in data set [8] is 240 ng/g. Also, in data set [9], the Kp at 1 h amounted to 0.1.

`CC(C)CCn1ccc(-c2ccc(OC3CCCC3)c(Cl)c2)c(C#N)c1=O`: in data set [1], the EC50 stood at 100 nM. For the same compound, the Emax in data set [2] was 199%.

For the compound `CCCCn1ccc(-c2ccc(Oc3ccc(C)nc3C)c(Cl)c2)c(C#N)c1=O`, the EC50 in data set [1] is 30 nM. Also, the Emax in data set [2] is 231%. Further, the metabolised at 0.25 h, 5 µM in data set [3] came out at 34%; in data set [4] it was 50%. Also, the inhibition at 5 min, 3 µM at hERG is 80%. Besides, the concentration at 0.5 h in data set [6] is 1480 ng/g. Besides, in data set [7], the concentration at 1 h stood at 830 ng/g. Also, the concentration at 1.5 h in data set [8] was 281 ng/g. Also, the Kp at 1 h in data set [9] stood at 0.4.

Take `Cc1ncccc1Oc1ccc(-c2ccn(CC3CC3)c(=O)c2C#N)cc1`: the EC50 in data set [1] is 1070 nM. In addition, the Emax in data set [2] was 155%. Also, the results for the metabolised at 0.25 h, 5 µM in data set [3] and in data set [4] were 36% and 39%, respectively.

As for `CC(C)CCn1ccc(-c2ccc(NC3CCOCC3)c(Cl)c2)c(C#N)c1=O`, in [1], the EC50 was 174 nM. The Emax in data set [2] was determined as 247%. In addition, the metabolised at 0.25 h, 5 µM turned out to be 42% in data set [3] and 47% in data set [4].

On to `CCCCn1ccc(-c2ccc(Oc3ccc(C)nc3C)cc2)c(C#N)c1=O`, for which the EC50 in data set [1] was 138 nM. Besides, in data set [2], the Emax was determined as 239%. In addition, the values for the metabolised at 0.25 h, 5 µM in data set [3] and in data set [4] were 51% and 60%, respectively.

For the compound `CCCCn1ccc(-c2ccc(Oc3ccnc(C)c3)cc2F)c(C#N)c1=O`, in data set [2], the Emax worked out at 232%. The metabolised at 0.25 h, 5 µM in [3] is 31%; in data set [4], 50%. Further, the inhibition at 5 min, 3 µM at hERG is 52%.

In the case of `COc1ccc(-c2ccn(CCC(C)C)c(=O)c2C#N)cc1F`, the 50% effective concentration (EC50) in data set [1] stood at 1170 nM. For the same compound, in data set [2], the Emax worked out at 160%. Besides, the metabolised at 0.25 h, 5 µM in data set [3] stood at 35%.

`Cc1cc(Oc2ccc(-c3ccn(CC4CCC4)c(=O)c3C#N)cc2)ccn1`: the EC50 in data set [1] turned out to be 126 nM. Besides, the Emax in data set [2] came to 233%. Also, the metabolised at 0.25 h, 5 µM came to 36% in [3] and 44% in [4]. For the same compound, the inhibition at 5 min, 3 µM at hERG was determined as 80%.

`COc1cccc(-c2ccn(CCC(C)C)c(=O)c2C#N)c1`: in [2], the Emax came to 176%. Besides, the metabolised at 0.25 h, 5 µM in [3] came out at 74%.

Consider `CCCCn1ccc(-c2ccc(Oc3cc(C)nc(C)c3)c(F)c2)c(C#N)c1=O`, for which the EC50 in [1] was determined as 372 nM. In data set [2], the Emax is 217%. The metabolised at 0.25 h, 5 µM in data set [3] worked out at 16%; in data set [4] it was 41%. Further, the inhibition at 5 min, 3 µM on hERG was found to be 71%.

On to `CCCCn1ccc(-c2ccc(Oc3ccnc(C)c3)c(Cl)c2)c(C#N)c1=O`, for which the EC50 in [1] was 166 nM. For the same compound, the Emax in data set [2] stood at 245%. Also, the metabolised at 0.25 h, 5 µM in data set [3] was 35%; in data set [4], 51%.

On to `CC(C)CCn1ccc(-c2ccc(N3CCOCC3)cc2)c(C#N)c1=O`, for which, in data set [1], the EC50 worked out at 2040 nM. Also, the Emax in data set [2] was found to be 236%. Also, the metabolised at 0.25 h, 5 µM amounted to 38% in data set [3] and 48% in [4].

Take `COc1ccccc1-c1ccn(CCC(C)C)c(=O)c1C#N`: the EC50 in [1] was above 10000 nM. For the same compound, the Emax in data set [2] worked out at 120%. The metabolised at 0.25 h, 5 µM in [3] was 38%.

As for `COc1ccc(-c2ccn(CCC(C)C)c(=O)c2C#N)cc1OC`, in data set [1], the EC50 was determined as 260 nM. Also, the Emax in data set [2] turned out to be 242%. Also, the metabolised at 0.25 h, 5 µM in data set [3] amounted to 26%.

For the compound `CC(C)CCn1ccc(-c2ccc(OCC3CC3)c(Cl)c2)c(C#N)c1=O`, the EC50 in [1] was determined as 110 nM. In addition, the Emax in data set [2] turned out to be 206%. Further, the metabolised at 0.25 h, 5 µM in data set [3] was 17%; in data set [4], 72%.

As for `CC(C)CCn1ccc(-c2ccc(OC3CCOCC3)c(Cl)c2)c(C#N)c1=O`, in [1], the EC50 was determined as 186 nM. Also, the Emax in data set [2] came out at 197%. Besides, the metabolised at 0.25 h, 5 µM in data set [3] worked out at 36%; in data set [4], 54%.
